# Measurements taken from BindingDB's records for doi:10.7270/Q2ZC817P (The Scripps Research Institute Molecular Screening Center, 2007).
# pEC50: −log10 of the molar value. Where a name gives a salt, the structure may show the parent alone.
# Molecular target: Sphingosine 1-phosphate receptor 1 (Homo sapiens, UniProt P21453)
# Test: potentiators of S1P1 agonist response, dose response, cell-based, potentiator mode, 60K MLSMR set (AID 466)
# Conditions: not given
# Sphingosine 1-phosphate receptor 1, sequence (P21453 whole entry): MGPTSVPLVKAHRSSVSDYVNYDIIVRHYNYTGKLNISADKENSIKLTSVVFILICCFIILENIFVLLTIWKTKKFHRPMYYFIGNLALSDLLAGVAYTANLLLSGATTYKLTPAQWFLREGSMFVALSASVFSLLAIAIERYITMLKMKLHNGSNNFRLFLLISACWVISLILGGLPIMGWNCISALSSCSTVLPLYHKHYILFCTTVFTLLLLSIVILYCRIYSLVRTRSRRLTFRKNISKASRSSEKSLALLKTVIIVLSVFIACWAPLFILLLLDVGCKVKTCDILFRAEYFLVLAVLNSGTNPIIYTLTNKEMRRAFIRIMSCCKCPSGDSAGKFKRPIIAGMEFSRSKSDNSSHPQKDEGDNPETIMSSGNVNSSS
row,pEC50,Structure (SMILES)
1,< 5.00,"Nc1nnnn1N=C/C(Br)=C/c1ccccc1 [1-[[(Z)-2-bromanyl-3-phenyl-prop-2-enylidene]amino]-1,2,3,4-tetrazol-5-amine]"
2,5.08,"c1ccc(-c2ccc(-c3nc(-c4ccncc4)no3)cc2)cc1 [5-(4-phenylphenyl)-3-(4-pyridyl)-1,2,4-oxadiazole]"
3,6.41,"Cc1nn(-c2nc3ccccc3s2)c(N)c1-c1ccccc1 [1-(1,3-benzothiazol-2-yl)-3-methyl-4-phenyl-1H-pyrazol-5-amine]"
4,5.82,"CCOc1ccc(-c2nc(-c3ccccc3C)no2)cc1 [3-(o-tolyl)-5-p-phenetyl-1,2,4-oxadiazole]"
5,5.98,"COC(=O)c1cc(CSc2nnc(-c3ccccc3)c(-c3ccccc3)n2)oc1C [5-[[(5,6-diphenyl-1,2,4-triazin-3-yl)thio]methyl]-2-methyl-3-furancarboxylic acid methyl ester]"
6,5.01,N#Cc1nc(-c2ccc(OCc3ccccc3)cc2)oc1NCc1cccnc1 [2-(4-benzoxyphenyl)-5-(3-pyridylmethylamino)oxazole-4-carbonitrile]
7,5.07,"CC(C)c1cc(C(=O)N2CCN(C(c3ccccc3)c3ccccc3)CC2)no1 [(4-benzhydrylpiperazin-1-yl)-(5-propan-2-yl-1,2-oxazol-3-yl)methanone]"
8,6.06,O=C(Nc1ccc(N2CCCCC2)c(Cl)c1)c1nnc[nH]1
9,< 4.02,"O=C(CSc1nnc(Cc2csc(Nc3cccc(Cl)c3)n2)o1)N1CCc2ccccc21 [2-[[5-[[2-(3-chloroanilino)-1,3-thiazol-4-yl]methyl]-1,3,4-oxadiazol-2-yl]sulfanyl]-1-(2,3-dihydroindol-1-yl)ethanone]"
10,< 4.52,"Cc1cc(C(=O)CC#N)c(C)n1-c1ccc(OC(F)F)cc1 [3-[1-[4-(difluoromethoxy)phenyl]-2,5-dimethyl-3-pyrrolyl]-3-oxopropanenitrile]"
11,5.58,"c1ccc(C(Cc2nc(-c3cccnc3)no2)c2ccccc2)cc1 [5-(2,2-diphenylethyl)-3-(3-pyridinyl)-1,2,4-oxadiazole]"
12,4.19,"COCCn1c(C)cc(C(=O)CSc2nc3ccccc3c(=O)[nH]2)c1C [2-[[2-[1-(2-methoxyethyl)-2,5-dimethyl-3-pyrrolyl]-2-oxoethyl]thio]-1H-quinazolin-4-one]"
13,5.36,"O=S(=O)(c1cccs1)N1CCN(CC(O)COc2cc(Cl)ccc2Cl)CC1 (centres undefined) [1-(2,5-dichlorophenoxy)-3-(4-thiophen-2-ylsulfonyl-1-piperazinyl)-2-propanol]"
14,5.35,CCc1ccc(NC(=O)c2cc(-c3ccco3)on2)cc1 [MLS000087211]
15,5.49,"O=S1(=O)Nc2c(ccc3cccnc23)-c2ccccc21 [5H-quinolino[8,7-c][1,2]benzothiazine 6,6-dioxide]"
16,< 5.00,COc1ccc(OC)c(-c2cc(C(=O)Nc3c(C)nn(Cc4ccc(Cl)cc4)c3C)no2)c1 [MLS000087191]
17,< 5.00,"Oc1ccc(-c2nnc(-c3ccc(O)cc3)nn2)cc1 [4,4'-(1,2,4,5-tetrazine-3,6-diyl)diphenol]"
18,5.13,CCOc1ccc(-c2nc(CSCC(=O)N3CCN(c4cccc(OC)c4)CC3)c(C)o2)cc1 [1-[4-(3-methoxyphenyl)piperazino]-2-[(5-methyl-2-p-phenetyl-oxazol-4-yl)methylthio]ethanone]
19,5.47,"CC1=NC(=O)NC(c2ccccc2)C1C(=O)OCc1ccc2c(c1)OCO2 (centres undefined) [1,3-benzodioxol-5-ylmethyl 6-methyl-2-oxidanylidene-4-phenyl-3,4-dihydro-1H-pyrimidine-5-carboxylate]"
20,6.90,COc1ccc(-n2nc3ccc(NS(C)(=O)=O)cc3n2)cc1Cl [MLS000049114]
21,5.20,Fc1ccc2[nH]c3c(N4CCSCC4)ncnc3c2c1 [MLS000078401]

row,pEC50,Structure (SMILES)
1,5.22,"Cc1ccc(-c2nc(CSCC(=O)N3CCN(c4ccccn4)CC3)c(C)o2)cc1 [2-[[5-methyl-2-(4-methylphenyl)-1,3-oxazol-4-yl]methylsulfanyl]-1-(4-pyridin-2-ylpiperazin-1-yl)ethanone]"
2,< 4.02,CC(C)C(c1nnnn1Cc1ccccc1)N(Cc1ccco1)Cc1cccs1 (centres undefined) [1-(1-benzyltetrazol-5-yl)-N-(furan-2-ylmethyl)-2-methyl-N-(thiophen-2-ylmethyl)propan-1-amine]
3,< 5.00,"O=S1(=O)C=C(Sc2nc3ccccc3s2)c2ccccc21 [2-[(1,1-dioxido-1-benzothien-3-yl)thio]-1,3-benzothiazole]"
4,< 5.00,O=C(Nc1nc(-c2ccc(Cl)s2)cs1)c1ccncc1 [MLS000098514]
5,5.68,"CC(=O)c1c(C)[nH]c(C(=O)OCCCCN2C(=O)c3ccccc3C2=O)c1C [4-acetyl-3,5-dimethyl-1H-pyrrole-2-carboxylic acid 4-(1,3-dioxo-2-isoindolyl)butyl ester]"
6,5.15,"Cc1csc(SCC(=O)c2cc(C)n(Cc3cccs3)c2C)n1 [1-[2,5-dimethyl-1-(2-thenyl)pyrrol-3-yl]-2-[(4-methylthiazol-2-yl)thio]ethanone]"
7,4.86,"CCCCc1ccc(C2C(C#N)C(=N)SC(=N)C2C#N)s1 (centres undefined) [2,6-bis(azanyl)-4-(5-butylthiophen-2-yl)-4H-thiopyran-3,5-dicarbonitrile]"
8,< 4.02,CC(C)(C)SCCNS(=O)(=O)c1ccccc1 [MLS000112230]
9,< 4.02,O=C(Oc1cccc(C(=O)N2CCOCC2)c1)c1ccc(Br)cc1 [(3-morpholin-4-ylcarbonylphenyl) 4-bromanylbenzoate]
10,5.22,"Cc1ccc(-n2c(C)cc(C(=O)CSc3nnnn3C)c2C)cc1 [1-[2,5-dimethyl-1-(4-methylphenyl)-3-pyrrolyl]-2-[(1-methyl-5-tetrazolyl)thio]ethanone]"
11,5.45,"Clc1ccc(CSc2nnc(-c3ccncc3)o2)cc1 [2-[(4-chlorobenzyl)thio]-5-(4-pyridyl)-1,3,4-oxadiazole]"
12,5.55,COc1ccc2c(c1)CCc1c(C(=O)Nc3ccc(OC)c(OC)c3)noc1-2 [MLS000087452]
13,5.15,CC1Cc2ccccc2N1c1ncnc2nc[nH]c12 (centres undefined) [SMR000017649]
14,5.28,COc1ccc(NC(=O)c2cc(-c3cccs3)on2)cc1OC [MLS000087261]
15,5.07,"O=C(Nc1ccc(OC(F)F)c(Cl)c1)Nc1ccc2c(c1)OCO2 [1-(1,3-benzodioxol-5-yl)-3-[3-chloro-4-(difluoromethoxy)phenyl]urea]"
16,< 5.00,N#C/C(=C/c1ccc(N2CCCCCC2)o1)c1ccc(F)cc1 [MLS000051438]
17,< 4.52,"COc1ccc(-c2cn3c(C)c(C(=O)N4CCCc5ccccc54)sc3n2)cc1 [3,4-dihydro-2H-quinolin-1-yl-[6-(4-methoxyphenyl)-3-methyl-2-imidazo[2,1-b]thiazolyl]methanone]"
18,5.23,"CCOC(=O)c1cnc(-n2nc(C)cc2C)nc1NC1CCCCC1 [4-(cyclohexylamino)-2-(3,5-dimethyl-1-pyrazolyl)-5-pyrimidinecarboxylic acid ethyl ester]"
19,6.00,"COc1ccc(-c2noc(-c3cc(C)cc(C)c3)n2)cc1OC [3-(3,4-dimethoxyphenyl)-5-(3,5-dimethylphenyl)-1,2,4-oxadiazole]"
20,5.18,"Fc1ccc(COc2ccc(C=Nn3cnnc3)cc2)cc1 [1-[4-[(4-fluorophenyl)methoxy]phenyl]-N-(1,2,4-triazol-4-yl)methanimine]"
21,5.32,COCCN(C(=O)c1ccccc1)c1nnc(-c2cccnc2)s1 [MLS000032523]

row,Structure (SMILES),pEC50
1,"CCOc1cc(C2NCc3ccccc3-n3cccc32)ccc1O (centres undefined) [4-(5,6-dihydro-4H-pyrrolo[1,2-a][1,4]benzodiazepin-4-yl)-2-ethoxy-phenol;hydrochloride]",4.82
2,CCCCOc1ccc(S(=O)(=O)Nc2cccnc2)cc1 [4-butoxy-N-(3-pyridinyl)benzenesulfonamide],5.07

# Same assay, conditions: inactive by the depositor's call
row,pEC50,Structure (SMILES)
1,4.81,O=C(c1ccco1)N1CCN(c2ncnc3c2[nH]c2ccc(Br)cc23)CC1 [MLS000078404]
2,4.35,CCN(CC)S(=O)(=O)c1cc(C(=O)Nc2ccncc2)ccc1Cl [4-chloranyl-3-(diethylsulfamoyl)-N-pyridin-4-yl-benzamide]
3,5.00,"CCOC(=O)c1sc2nc(NC(=O)C(C)(C)C)sc2c1C [2-[(2,2-dimethyl-1-oxopropyl)amino]-6-methyl-5-thieno[2,3-d]thiazolecarboxylic acid ethyl ester]"
4,4.70,CCCOc1ccc(S(=O)(=O)NCc2ccc(OC)cc2)cc1 [MLS000104592]
5,4.87,"CC(=O)N1CCCc2cc(S(=O)(=O)NCCC3=CCCCC3)ccc21 [1-acetyl-N-(2-cyclohex-1-en-1-ylethyl)-1,2,3,4-tetrahydroquinoline-6-sulfonamide]"
6,4.23,O=C(c1cc(-c2ccccc2)on1)N1CCN(Cc2ccc3c(c2)OCO3)CC1 [(5-phenylisoxazol-3-yl)-(4-piperonylpiperazino)methanone]
7,4.82,Brc1ccc2ncnc(Nc3ccc(N4CCOCC4)cc3)c2c1 [(6-bromoquinazolin-4-yl)-(4-morpholinophenyl)amine]
8,4.87,"Cc1cc(N2CCN(C(c3ccccc3)c3ccccc3)CC2)n2ncnc2n1 [7-(4-benzhydrylpiperazin-1-yl)-5-methyl-[1,2,4]triazolo[1,5-a]pyrimidine]"
9,4.94,"COc1cccc(NC(=O)Nc2nnc(N3CCCCC3C)s2)c1 (centres undefined) [1-(3-methoxyphenyl)-3-[5-(2-methyl-1-piperidinyl)-1,3,4-thiadiazol-2-yl]urea]"
10,4.74,CSc1ccc(S(=O)(=O)Nc2ccc3c(c2)OCCO3)cc1 [MLS000115922]
11,4.51,CC(=O)c1sc(NC(=O)C2(F)C(F)(F)C(F)(F)C(F)(F)C(F)(F)C2(F)F)nc1C [MLS000040071]
12,4.73,"CCOC(=O)c1ccc2nc(NC(=O)c3ccco3)sc2c1 [2-(2-furoylamino)-1,3-benzothiazole-6-carboxylic acid ethyl ester]"
13,4.72,"Cc1cc(C(=O)N2CCN(C(c3ccccc3)c3ccccc3)CC2)no1 [(4-benzhydrylpiperazin-1-yl)-(5-methyl-1,2-oxazol-3-yl)methanone]"
14,4.82,"Cc1cc(C)n(-c2nc3ccccc3c(=O)n2OCCOc2ccccc2)n1 [2-(3,5-dimethyl-1-pyrazolyl)-3-(2-phenoxyethoxy)-4-quinazolinone]"
15,4.79,Cc1cccc(N2CCN(C(=O)C3CCCN(S(=O)(=O)c4cccc5cccnc45)C3)CC2)c1C (centres undefined) [MLS000120299]
